Values joined by “and” are separate entries in the source; they are usually repeats but may differ in a detail not shown here. Equal entries are not always repeated. Where two headings read alike, the source gives them in different places.

One experiment has as its system P. berghei blood stages. Conditions: Pb-infected mice, single oral 50 mg/kg dose 1 day PI, compared to untreated animals.
The test system of experiment [1] is P. berghei liver stages. In kind it is in vivo, Plasmodium berghei. The following applies: liver stage model, mice.
The next experiment deals with P. falciparum TM90-C2B. The following applies: RI = EC50(TM90-C2B)/EC50(W2); cited from earlier work.
Experiment [2] deals with P. berghei liver stages. The following applies: read-out: liver stage activity; cited from earlier work.
The test system of a further experiment is Plasmodium cynomolgi. The following applies: rhesus monkeys; cited from earlier work.
The mark [3] stands for this setting: single dose 50 mg/kg subcutaneous.

With `Cc1[nH]c2cc(CN3CCN(c4ccc(F)cc4)CC3)ccc2c(=O)c1Br` [8an, 3-Bromo-7-((4-(4-Fluorophenyl)piperazin-1-yl)methyl)-2-methylquinolin-4(1H)-one], the “% inhibition day 6 PI” value with P. berghei blood stages is “completely inhibited parasite growth”.
As for `COC(=O)c1c[nH]c2cc(CN3CCN(c4ccc(C(F)(F)F)cc4)CC3)ccc2c1=O` [8p, Methyl 4-Oxo-7-((4-(4-(trifluoromethyl)phenyl)piperazin-1-yl)-methyl)-1,4-dihydroquinoline-3-carboxylate], in the experiment with P. berghei blood stages, the “% inhibition day 6 PI” value is reported as “completely inhibited parasite growth”.
With `COC(=O)c1c[nH]c2cc(CN3CCN(c4ccc(C(F)(F)F)cc4)CC3)c(OC)cc2c1=O` [8ab, Methyl 6-Methoxy-4-oxo-7-((4-(4-(trifluoromethyl)phenyl)-piperazin-1-yl)methyl)-1,4-dihydroquinoline-3-carboxylate], the “% inhibition day 6 PI” value with P. berghei blood stages is recorded as “completely inhibited parasite growth”.
As to `COC(=O)c1c[nH]c2cc(CN3CCN(Cc4ccc(OC)cc4)CC3)ccc2c1=O` [8l, Methyl 7-((4-(4-Methoxybenzyl)piperazin-1-yl)methyl)-4-oxo-1,4-dihydroquinoline-3-carboxylate], the no. of cures in the experiment with P. berghei liver stages [1] (single dose 25 mg/kg oral) was 0/5; with P. berghei liver stages [1] (single dose 50 mg/kg oral) it was 0/5; in the experiment with P. berghei liver stages [1] (setting [3]) it was 0/5; in the experiment on P. berghei liver stages [1] (single dose 100 mg/kg oral, 100 mg/kg), “one of five and 1/5”.
Turning to `CCCCc1cc2c(=O)c(Br)c(C)[nH]c2cc1OCCOc1ccccc1` [compound 2, 3-bromo-6-butyl-2-methyl-7-(2-phenoxyethoxy)quinolin-4(1H)-one], the “resistance index (RI)” value with P. falciparum TM90-C2B is 4.7. The EC50 with P. berghei liver stages [2] is 2.12 nM.
`COC(=O)c1c[nH]c2cc(CN3CCN(c4ccc(C(F)(F)F)cc4)CC3)c(C)cc2c1=O` [8v, Methyl 6-Methyl-4-oxo-7-((4-(4-(trifluoromethyl)phenyl)-piperazin-1-yl)methyl)-1,4-dihydroquinoline-3-carboxylate]: in the experiment with P. berghei blood stages, the “% inhibition day 6 PI” value is “completely inhibited parasite growth”.
In the case of `COC(=O)c1c[nH]c2cc(CN3CCN(c4ccccc4)CC3)ccc2c1=O` [8j, Methyl 4-Oxo-7-((4-phenylpiperazin-1-yl)methyl)-1,4-dihydroquinoline-3-carboxylate], the no. of cures with P. berghei liver stages [1] (single dose 25 mg/kg oral) was 2/5; in the experiment on P. berghei liver stages [1] (single dose 50 mg/kg oral) it was 2/5; in the experiment on P. berghei liver stages [1] (setting [3]), 3/5; in the experiment on P. berghei liver stages [1] (single dose 100 mg/kg oral), 5/5.
Consider `CCCCc1cc2c(=O)c(C(=O)OCC)c[nH]c2cc1OCCOc1ccccc1` [compound 1], for which, in the experiment on Plasmodium cynomolgi, the “radical cure (eradication of dormant exoerythrocytic stages)” value is on record as “radical cures”.

These data come from paper PMC6610884 (Journal of medicinal chemistry, 2018).
